How the values were obtained:
[1] = tested on: A549; experiment: transwell migration (modified Boyden chamber, serum gradient); type: cell-based; details: Homo sapiens, 12 hour migration, mean +/- SEM of three experiments, read-out: IC50, inhibition of transwell migration
Method: (§1) Migration assay: Cancer cell chemotaxis was performed towards a serum gradient in a modified Boyden chamber consisting of a cell culture insert (6.4 mm diameter, 8-μm pore polyethylene tetraphtalate membrane, [Becton Dickenson]) seated in each well of a 24-well companion plate (Becton Dickinson). Briefly, cancer cells were grown as subconfluent monolayer cultures then starved for 36 hours in serum-free M5 medium. After detachment and dissociation with 5 mM EDTA, single-cell suspensions were prepared by filtration through a 35 μm mesh cell strainer (Becton Dickinson). Cells were counted and a total of 10^5 cells suspended in serum-free medium were seeded into the upper chamber of an insert, then positioned in a 24-well plate, containing medium with or without 10% serum. When used, drugs or DMSO (vehicle) were added to the medium at 0.2% in both chambers. Migration assays were carried out for 12 hours in a humidified incubator at 37° C. with 5% CO2. Cells were then fixed with 3.7% formaldehyde, permeabilized with ice cold methanol and stained with a 0.2% Crystal violet solution. Non-migratory cells on the upper side of the insert were removed with a cotton swab. For quantification, three randomly selected fields on the lower side of the insert were photographed at 4× and 20× magnification using computer-assisted microscopy, and analyzed with CellProfiler2.0 cell image analysis software). The migration in response to the test condition was calculated relative to the DMSO vehicle control.
(§2) This assay provided reproducibly robust data, allowing dose-response studies to be carried out to determine the half maximal inhibitory concentration (IC50). […] Because we noticed a mild toxicity and effects on cell proliferation in the millimolar range, experiments with CME and ME at 1 mM or more were not included for the IC50 calculation.
(§3) Lung Cancer cell lines chemotaxis was performed in cell culture inserts after serum starvation and an overnight preincubation with an incremental logarithmic scale of drug concentration (ME and CME from 10^−3 to 10^−10M). Cancer cell migration in response to a serum gradient was measured after a 12 hour-long incubation in presence of different concentrations of ME or CME in both upper and lower chamber (three wells at each dose). Cells were then fixed and stained with Crystal violet, and photographed. […] Data are expressed as the mean+/−SEM of three independent experiments. Each experiment was performed in triplicate.

[2] = tested on: H299; experiment: as above; type: cell-based; details: Homo sapiens, 12 hour migration, mean +/- SEM of three experiments, read-out: IC50, inhibition of transwell migration
Method: as §1, §2, §3

[3] = tested on: multiple myeloma (RPMI8226, MM1S, ARP-GL, CAG-GL, OPM2-GL, SKO-007-GL, U266-GL, MM1R cells); experiment: toxicity by alamarBlue, multiple myeloma cell lines; type: cell-based, human; details: mean of 8 cell lines
Method: The toxicity of compounds 42-45 and their IC50 was determined on a panel of human tumor cell lines of multiple myeloma (RPMI8226, MM1S, MM1R, ARP-GL, CAG-GL, OPM2-GL, SKO-007-GL, U266-GL,) and lung cancer (H299-GL, H522-GL, H647-GL, A549-GL, A549-GL, HI993, H1075-GL, HI373, H17030) origin. Tumor cells were dissociated into a single-cell suspension by Trypsin/Collagenase IV treatment and 500 cells per well were aliquoted into each well of 384 microwell plates in 50 μl of RPMI medium with 10% FCS. Compounds 42-45 were dissolved in DMSO and serially diluted in RPMI medium plus 10% FCS and added (1 mM to 1 nM) to quadruplicate wells containing tumor cells. Dilutions of DMSO without compound were used as a control. After 18 hrs or 2 days, the cultures were pulsed with 6 μl of alamarBlue® (Invitrogen Inc. Grand Island, N.Y.) and incubated overnight. The alamarBlue® provides a cell growth indicator based on detection of metabolic activity. The assay system incorporates an oxidation-reduction indicator that both fluoresces and changes color in response to chemical reduction of growth medium resulting from cell growth. The fluorescence intensity was measured using a Synergy H1 Microplate Reader (Biotek Inc, Winooski, VT) and a dose-response curve established for IC50 determination.

[4] = tested on: A549 cells; experiment: in vitro wound-healing (scratch) assay; type: cell-based, human; details: for migration in response to a scratch wound: 100 μM
Method: This Example evaluates the anti-metastatic properties of new migrastatin analogs by assessing their ability to inhibit in vitro cancer cell migration in a wound-healing assay and their chemotaxis in a transwell migration assay. […] Similar results were obtained with a panel of human lung cancer cell lines (H1975, H647, H522, H1703, data not shown).
For the results depicted in FIG. 3, A549 cancer cells were grown as nearly confluent monolayer culture and then starved overnight in medium containing 0.5% FCS. Cell monolayers were then scratched using pipette tip, photographed, and incubated with a 6 log-scaled concentration range of ME and CME from 10^−3 to 10^−8M, with or without 2% FCS. After 12 H, areas were fixed, stained and photographed using computer-assisted microscopy. Micrographs (4× magnification) are presented, showing the A549 cancer cell migration across the scratches in absence of serum (no migration), presence of serum (migration), and in the presence of serum plus CME or ME at 100 μM or 100 nM.
Wound-Healing Assay: Cancer cells migration was measured using an “in vitro wound-healing assay” (or scratch assay) performed in a 12-well plate (Becton Dickinson). Briefly, cancer cells were seeded at a density of 5-10×10^4 cells per well, grown to near confluent monolayers in 10% serum-supplemented M5 medium and then starved overnight in a low serum medium (0.5% FCS). Perpendicular wounds were scratched through the cell monolayer using a sterile 200 μL pipette tip. The cells were then washed twice very gently using PBS and the scratched areas were photographed at 4× and 20× magnification using computer-assisted microscopy. […] Each well was photographed at 4× and 20× magnification and the pictures analyzed with CellProfiler2.0 cell image analysis software as previously described, (Carpenter A E, Jones T R, Lamprecht M R, Clarke C, Kang I H et al. (2006), Genome Biology 7(10):R100). The migration in response to the test condition was calculated as cell coverage of the original cell-free zone and related to DMSO vehicle control.

[5] = tested on: lung cancer (H299-GL, H522-GL, H647-GL, A549-GL, H1993, H1075-GL, H1373-GL H1703 cells); experiment: toxicity by alamarBlue, lung cancer cell lines; type: cell-based; details: mean of 8 cell lines
Method: Dilutions of DMSO without compound were used as a control. After 18 hrs or 2 days, the cultures were pulsed with 6 μl of alamarBlue® (Invitrogen Inc. Grand Island, N.Y.) and incubated overnight. The alamarBlue® provides a cell growth indicator based on detection of metabolic activity. The assay system incorporates an oxidation-reduction indicator that both fluoresces and changes color in response to chemical reduction of growth medium resulting from cell growth. The fluorescence intensity was measured using a Synergy H1 Microplate Reader (Biotek Inc, Winooski, VT) and a dose-response curve established for IC50 determination.

SMILES: CO[C@H]1/C=C/CCCCCOC/C(C)=C\[C@@H](C)[C@@H]1O [ME, migrastatin ether]
- IC50 [1]: 1.93 ± 0.41 µM
- IC50 [2]: 8.2 ± 1.75 µM
- Estimated lethal doses (LD50) ([3]; 18 h exposure): 794.8 µM
- Estimated lethal doses (LD50) ([3]; 48 h exposure): 881.7 µM
- migration in response to a scratch wound [4]: almost completely blocked
- Estimated lethal doses (LD50) ([5]; 48 h exposure): 639.8 µM

SMILES: CO[C@H]1/C=C/CCCCCOC/C(C)=C\[C@@H](C)[C@@H]1OCC(=O)O [CME, Carboxymethyl migraether]
- IC50 [1]: 0.66 ± 0.2 µM
- IC50 [2]: 5.02 ± 1.13 µM
- Estimated lethal doses (LD50) ([3]; 18 h exposure): 503.6 µM
- Estimated lethal doses (LD50) ([3]; 48 h exposure): 452.9 µM
- migration in response to a scratch wound [4]: almost completely blocked
- inhibition of migration ([4]; submicromolar concentrations): 32%
- Estimated lethal doses (LD50) ([5]; 18 h exposure): 553.9 µM
- Estimated lethal doses (LD50) ([5]; 48 h exposure): 697.9 µM
